Measurements published in BindingDB's records for doi:10.1074/jbc.274.19.13370 (SynthÉLabo, 1999).
Values joined by “and” are separate entries in the source; they are usually repeats but may differ in a detail not shown here. Equal values may be shown once.

Biological target: Gamma-aminobutyric acid receptor subunit alpha-5 (Rattus norvegicus, UniProt P19969)
Sequence (P19969 whole entry): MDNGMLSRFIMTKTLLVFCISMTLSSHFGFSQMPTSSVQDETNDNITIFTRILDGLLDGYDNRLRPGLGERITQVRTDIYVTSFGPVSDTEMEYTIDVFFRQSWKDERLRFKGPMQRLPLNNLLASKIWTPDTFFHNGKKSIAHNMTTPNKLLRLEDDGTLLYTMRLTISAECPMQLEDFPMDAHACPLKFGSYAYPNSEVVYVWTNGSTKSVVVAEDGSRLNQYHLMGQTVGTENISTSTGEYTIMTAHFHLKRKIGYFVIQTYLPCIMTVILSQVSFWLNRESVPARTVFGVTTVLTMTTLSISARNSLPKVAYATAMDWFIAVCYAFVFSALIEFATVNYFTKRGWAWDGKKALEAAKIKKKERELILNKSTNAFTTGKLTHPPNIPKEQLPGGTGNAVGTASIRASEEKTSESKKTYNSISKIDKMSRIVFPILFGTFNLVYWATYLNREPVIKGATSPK

**Q.** Which Ki does the source give for `Cc1nnc2ccc(-c3cccc(C(F)(F)F)c3)nn12` here?
**A.** 333 nM and 127 nM and 157 nM and 447 nM
